Patent US20260000713A1, “MICROBIAL M[…] INTESTINAL INFLAMMATION” (CEDARS-SINAI MEDICAL CENTER, priority 2021, published 2026)
Read-outs that look alike come from different tables or passages of the source.

Columns and labels:
[1] = tested on: GF WT mice or GF Tl1a-tg mice; settings: 200 mM sodium acetate in drinking water for 3 months, vs regular drinking water
Procedure: (§1) Histology Scoring: Ileal tissues were collected 1-2 cm long near cecum, paraffin-embedded and stained with H&E for histological analysis. Severity of ileal inflammation was evaluated in a blinded manner according to previously described criteria by two trained animal pathologists. Spontaneous ileitis was evaluated by scoring the degree of inflammation, extent of involvement, crypt damage and villus changes as described. GF mice were evaluated using a scoring criterion.
The impact of acetate on the development of ileitis was examined.
(§2) Acetate supplementation: Sodium acetate (Sigma Aldrich) was added at 200 mM to drinking water. SPF mice were supplemented with acetate water for 2 or 4 months starting at 2 months of age. GF mice were supplemented with acetate water for 3 months starting at 2-3 months of age.
12-week-old littermate GF WT mice or GF Tl1a-tg mice were treated with 200 mM of sodium acetate in drinking water (ad libitum) for 3 months. […] The number of mice used was 12 to 22 mice per group.

[2] = tested on: Paneth cells; settings: acetate treated GF WT or Tl1a-tg mice
Procedure: as §2
(§3) The groups depicted include WT H2O, WT Ac (acetate), Tl1a-tg H2O, and Tl1a-tg Ac. Around 12-19 mice were used in each group. […] Around 6 mice were used per group.

[3] = tested on: Germ-free IBD susceptible mice; settings: Germ-free Tl1a-Tg mice receiving acetate vs standard water
Procedure: as §2

[4] = tested on: IFN-γ; settings: MLN cells restimulated with anti-CD3ε and anti-CD28 for 3 days
Procedure: as §2
Isolation of mesenteric lymph nodes mononuclear cells, restimulation, and ELISA: Mesenteric lymph nodes (MLN) were removed from the peritoneal cavity and mesenteric fat was removed. Single cell suspension was prepared by crushing MLN between two glass slides and passing the cell suspension through a 40 μm cell strainer. Single-cell suspensions were restimulated with anti-CD3ε (0.5 μg/ml) and anti-CD28 (1 μg/ml) antibodies for 3 days. Cytokine levels in supernatants were measured by ELISA. Cytokine concentration in culture supernatants was assayed by ELISA for murine IFN-γ (eBioscience).
as §3

[5] = tested on: SPF WT mice or tl1a-tg mice
Procedure: as §1, §2
In a second set of experiments, SPF WT mice or tl1a-tg mice were treated with acetate in drinking water for 2 or 4 months starting at 2 months of age. […] 9 to 23 mice were used per group.

For `CC(=O)[O-].[Na+]` [acetate, Sodium acetate], the “ileal inflammation (ileum histoscore)” value ([1]; GF Tl1a-tg mice) was “developed ileal inflammation”, the “ileal inflammation (ileum histoscore)” value ([1]; GF WT mice) was “developed ileal inflammation” and the “Paneth cell granule maturation (percentage of Paneth cells with D0, D1, D2, D3 features)” value [2] was “did not result in normal Paneth cell granule maturation”. The “cecal collagen deposition (fibrosis)” value [3] was “increase in cecal collagen deposition”, the “IFN-γ secretion by MLN” value ([4]; acetate treated GF Tl1a-tg mice) was “significantly elevated IFN-γ secretion” and the “IFN-γ secretion by MLN” value ([4]; acetate treated GF WT mice) was “significantly elevated IFN-γ secretion”. For the same molecule, the “ileitis (histoscore)” value ([5]; SPF Tl1a-tg mice, acetate in drinking water for 2 months starting at 2 months of age, vs age-matched water controls) was “led to ileitis” and the “ileal inflammation (histoscore)” value ([5]; SPF WT mice, acetate in drinking water for 4 months starting at 2 months of age, vs water controls) was “developed ileal inflammation”.
